Tests used:
[1] = system: Co-cultures of Caco-2 and HT29-MTX-E12 cells; test: Barrier integrity, leaky gut model, apical stressor Rhamnolipids; assay type: cell-based; settings: vs corresponding control; for TEER, apical induction of leaky gut cellular model: 48 h minus 0 h fermentation samples; for Lucifer yellow, apical induction of leaky gut cellular model: 48 h fermentation samples
Experimental: Since ethanol is known to have antimicrobial effects, two blanks for each type of stock solution were included. As a source of the microbial community, a freshly prepared fecal suspension from the selected donor was added to the reactors. […] All tests, except the blanks, were performed in single repetition, resulting in 40 independent incubations, as specified in Table 1. Incubation conditions of the pre-screening experiment and the final experiment were 48 h at 37° C., under shaking (90 rpm) and anaerobic conditions. […] Effluent samples were collected from each fermentation flask before (0 h fermentation) and after fermentation (48 h fermentation), sterilized by filtering through 0.22 μm filters and used for short chain fatty acids (SCFA), quantification of immunological biomarkers and in vitro analysis in cell culture systems.
Co-cultures of Caco-2 and HT29-MTX-E12 cells were used to assess the protective effect of the supernatants before (0 h) and after fermentation (48 h) for both sets of in vitro experiments above.
CaCo-2 ECACC 86010202 and HT29-MTX-E12 ECACC 12040401 cells (both from European Collection of Cell Cultures, Salisbury, UK) were both cultured at 37° C., in atmosphere of 5% CO2 in DMEM medium supplemented with 4.5 g/L D-Glucose, 4 mM L-Glutamine, 1 mM Sodium Pyruvate, 1% MEM Non-Essential Amino Acids, 50 μg/mL Gentamicin (Life Technologies Europe B.V., Zug, Switzerland) and 10% heat-inactivated FBS (Sigma-Aldrich, Buchs, Switzerland). Sub-confluent cells were trypsinized using 0.25% Trypsin/EDTA (Life Technologies Europe B.V., Zug, Switzerland) and passaged at a ratio of 1:5-1:10 twice a week. Cells between passages 55 and 85 were used for this study.
Cells were seeded at a density of 20000 cells/well in a 7:3 ratio (Caco-2:HT29-MTX-E12) in Corning HTS Transwell-24 system PET membranes, 0.4 μM pore size, cell growth area 0.33 cm2/well (Corning BV, Amsterdam, Netherlands) and cultured as described above. Media was changed every second to third day.
For both sets of in vitro experiments, the integrity of cell monolayers after the stressor test was evaluated by both TEER values and by measuring the transport of Lucifer yellow from apical to basolateral compartments (Leaky gut model). A prewarmed HBSS transport buffer composed of Hank's Balanced Salt Solution pH 7.4 with Ca2+ and Mg2+, containing 5.5 mM D-(+)-glucose, Sodium Bicarbonate, and supplemented with 4 mM L-glutamine, 20 mM HEPES (Life Technologies Europe B.V., Zug, Switzerland) was used for all permeability experiments. The inserts were rinsed twice with HBSS using a reservoir tray, 100 μl HBSS were then added to the apical site of the inserts and subsequently moved to new wells with fresh HBSS and allowed to equilibrate at 37° C. for 60 min in the incubator followed by TEER measurement to obtain baseline resistance readings.
Lucifer Yellow CH dilithium salt (Sigma-Aldrich, Buchs, Switzerland) was dissolved in HBSS at a final concentration of 100 μg/ml. Basolateral stressor EtOH (Merck, KgaA, Darmstadt, Germany) was diluted to 5% in HBSS. Apical Stressor Rhamnolipids R90 (AGAE Technologies, Corvallis, USA) was dissolved in HBSS containing Lucifer Yellow at a final concentration of 350 μg/ml. All solutions were prepared freshly each time.
The HBSS transport buffer from the basolateral chamber was aspirated first, then the HBSS from the apical chamber and replaced with Lucifer yellow solution. For the apical stressor test, Lucifer yellow solution containing 350 μg/ml Rhamnolipids or Lucifer yellow solution without stressor for the control wells was loaded into the apical compartment, blank HBSS was subsequently added to the basolateral chamber.

HT29 cells = test: HT29 cell culture, quantification of immunological biomarkers; assay type: cell-based; settings: effluent from 24 h fermentation, vs corresponding control
Experimental: Since ethanol is known to have antimicrobial effects, two blanks for each type of stock solution were included. As a source of the microbial community, a freshly prepared fecal suspension from the selected donor was added to the reactors. […] All tests, except the blanks, were performed in single repetition, resulting in 40 independent incubations, as specified in Table 1. Incubation conditions of the pre-screening experiment and the final experiment were 48 h at 37° C., under shaking (90 rpm) and anaerobic conditions. DNA were extracted from effluent samples collected from each fermentation flask before (0 h fermentation) and after fermentation (24 h fermentation) and use for microbiome composition analysis by Shotgun sequencing. Effluent samples were collected from each fermentation flask before ([…]), […] cell culture systems.
For both sets of in vitro experiments, HT29 cells were obtained from American Type Culture Collection (Manassas, VA). Cells were cultured in DMEM supplemented with 10% fetal bovine serum (FBS), 50 units/ml penicillin, 50 μg/ml streptomycin, L-glutamine, and nonessential amino acids (Life Technologies Europe B.V., Zug, Switzerland). Cells were seeded into 12-well plates at 8×10^5 cells per well and used after 2 days of preculture. They were starved in DMEM containing 0.25% FBS for 18 h before treatment. Cells were treated for 24 hours with TNF-α at 100 ng/mL or fermentation supernatants which were sterile filtered and diluted 1:20 in DMEM containing 0.25% FBS. All treatments were done in triplicate. Consequently, cytokines, chemokines and interleukins were quantified in HT29 supernatants using the Luminex Technology (LiquiChip Workstation IS 200, Qiagen, Hilden, Germany) with Bio-Plex Pro Human Cytokine Panel kits (Bio-Rad, Hercules, CA) or with Luminex Screening Assay kits (R&D Systems, Inc., Minneapolis, MN), following the manufacturer's instructions. The data were acquired with the Luminex IS 2.3 software and evaluated with the LiquiChip Analyser software (Qiagen, Hilden, Germany).

[2] = system: fecal suspension from the selected donor; test: Intestinal batch fermentation, SCFA production (first set); assay type: cell-based, human; settings: after 48 h fermentation, vs corresponding control
Experimental: In a first set of in vitro experiments at the start of intestinal batch fermentation incubation, all test ingredients were added from stock solutions to the modified nutritional medium, containing (g/l): 2.5 K2HPO4, 10.9 KH2PO4, 2 NaHCO3, 2 yeast extract, 2 peptone, 1 mucin, 0.5 cysteine, 2 Tween 80, 2 glucose, 2 starch, 2 cellobiose, 0.1 NaCl, 0.01 MgSO4·7H2O, 0.01 CaCl2·6H2O, 0.05 hemin, 0.5 bile salts.
The other compounds were prepared in ethanol: • Vitamin K1 (VK1), • MEG-3 0080 EE Oil (MEG-3 0080 EE), • MEG-3 4535 EE Oil (MEG-3 4535 EE), • MEG-3 8000 EE Oil (MEG-3 8000 EE).
(§1) Since ethanol is known to have antimicrobial effects, two blanks for each type of stock solution were included. As a source of the microbial community, a freshly prepared fecal suspension from the selected donor was added to the reactors. […] All tests, except the blanks, were performed in single repetition, resulting in 40 independent incubations, as specified in Table 1. Incubation conditions of the pre-screening experiment and the final experiment were 48 h at 37° C., under shaking (90 rpm) and anaerobic conditions. DNA were extracted from effluent samples collected from each fermentation flask before (0 h fermentation) and after fermentation (24 h fermentation) and use for microbiome composition analysis by Shotgun sequencing. Effluent samples were collected from each fermentation flask before (0 h fermentation) and after fermentation (48 h fermentation), sterilized by filtering through 0.22 μm filters and used for short chain fatty acids (SCFA), quantification of immunological biomarkers and in vitro analysis in cell culture systems.
Short chain fatty acids (SCFA) are an assessment of the microbial carbohydrate metabolism (acetate, propionate and butyrate) or protein metabolism (branched SCFA) and can be compared to typical fermentation patterns for normal GI microbiota. Samples for SCFA analysis were analyzed after 0, 6, 24 and 48 h of incubation for both set of in vitro experiments, above.
SCFA were extracted from the samples with diethyl ether, after the addition of 2-methyl hexanoic acid as an internal standard. Extracts were analysed using a GC-2014 gas chromatograph (Shimadzu's-Hertogenbosch, the Nether-lands), equipped with a capillary fatty acid-free EC-1000Econo-Cap column (dimensions: […]×0.53 mm, film thickness […]; Alltech, Laarne, Belgium), a flame ionization detector and a split injector. The injection volume was […] and the temperature profile was set from 110 to 160° C., with a temperature increase of 6° C. min-1. The carrier gas was nitrogen and the temperature of the injector and detector were […] and 220° C., respectively. The production of unbranched and branched SCFA was calculated by summing the molar concentrations of acetate, propionate, butyrate, valerate and caproate, and summing isobutyrate, isovalerate and isocaproate molar concentrations, respectively. The total SCFA production was defined as the sum of unbranched and branched SCFA.

[3] = system: genes involved in Acetyl-CoA fermentation to Butyrate pathway; test: Shotgun sequencing functional analysis: butyrate pathway genes (first set); assay type: cell-based, human; settings: after 24 h fermentation, vs corresponding control
Experimental: as §1
(§2) For the first set of in vitro experiments, total DNA was extracted from all samples collected throughout the study using the QIAamp DNA stool minikit (Qiagen, Crawley, United Kingdom) according to the manufacturer's instructions, apart from addition of a bead-beating step and increasing the lysis temperature to 95° C. as described previously (McCormack et al., 2018).
(§3) After DNA isolation, DNA was quantified using the Qubit High Sensitivity DNA assay (Thermo Fisher). Whole metagenome libraries were then prepared using the Illumina Nextera XT kit (Illumina) in accordance with the manufacturer's instructions, with the following modifications: Firstly, tagmentation time was increased to 7 min and secondly, following incorporation of indices and Ampure purification of the products, the samples were each individually sized by running on an Agilent High Sensitivity Chip (Agilent) and quantified using the Qubit High Sensitivity DNA assay (Thermo Fisher) in accordance with Teagasc Sequencing Platform SOPs. The samples were then pooled equimolarly and sequenced on the Illumina NextSeq 500 with a NextSeq 500/550 v2 high-output reagent kit (300 cycles). All sequencing was done in the Teagasc sequencing facility in accordance with standard Illumina sequencing protocols.
(§4) Delivered raw FASTQ sequence files were quality checked as follows: poor quality and duplicate read removal, as well as trimming was implemented using a combination of SAM and Picard tools. Taxonomy was assigned to the reads using the Kraken software and functional analysis was performed with Super focus.

[4] = system: fecal microbial community; test: Microbiome composition by shotgun sequencing: alpha diversity (first set); assay type: cell-based, human; settings: after 24 h fermentation, vs corresponding control
Experimental: as §1, §2, §3, §4

Bifidobacterium = test: Microbiome composition by shotgun sequencing: Bifidobacterium (first set); assay type: cell-based, human; settings: after 24 h fermentation, vs corresponding control
Experimental: as §1, §2, §3, §4

| Structure (SMILES) | TEER, apical induction of leaky gut cellular model ([1]; 5× dose) | MIP3A-CCL20 production by HT29 cells (HT29 cells; 0.2× dose) | MIP3A-CCL20 production by HT29 cells (HT29 cells; 1× dose) | MIP3A-CCL20 production by HT29 cells (HT29 cells; 5× dose) | butyrate production ([2]; 0.2× dose) | butyrate production ([2]; 1× dose) | propionate production ([2]; 1× dose) | propionate production ([2]; 5× dose) | total SCFAs production ([2]; 5× dose) | microbiome alpha diversity (Shannon diversity index) ([4]; 5× dose) | further results |
| --- | --- | --- | --- | --- | --- | --- | --- | --- | --- | --- | --- |
| CC(=O)OC/C=C(C)/C=C/C=C(C)/C=C/C1=C(C)CCCC1(C)C [Vitamin A] | increase TEER | increase MIP3A-CCL20 production | increase MIP3A-CCL20 production | increase MIP3A-CCL20 production | increase butyrate production | increase butyrate production | increase propionate production | increase propionate production | increase total SCFAs production | increase microbiome diversity | TEER, apical induction of leaky gut cellular model ([1]; 0.2× dose): increase TEER; Lucifer yellow, apical induction of leaky gut cellular model ([1]; 1× dose): decrease Lucifer yellow; TEER, apical induction of leaky gut cellular model ([1]; 1× dose): increase TEER; Lucifer yellow, apical induction of leaky gut cellular model ([1]; 5× dose): decrease Lucifer yellow; IL-8 production by HT29 cells (HT29 cells; 0.2× dose): increase IL-8 production; IL-8 production by HT29 cells (HT29 cells; 5× dose): increase IL-8 production; propionate production ([2]; 0.2× dose): increase propionate production; total SCFAs production ([2]; 0.2× dose): increase total SCFAs production; acetate production ([2]; 1× dose): increase acetate production; butyrate production ([2]; 5× dose): increase butyrate production; relative abundance of genes involved in Acetyl-CoA fermentation to Butyrate pathway ([3]; 1× dose): increase relative abundance; relative abundance of genes involved in Acetyl-CoA fermentation to Butyrate pathway ([3]; 5× dose): increase relative abundance; microbiome alpha diversity (Shannon diversity index) ([4]; 1× dose): increase microbiome diversity; Bifidobacterium relative abundance (Bifidobacterium; 1× dose): increase Bifidobacterium relative abundance |
| C=C1CC[C@H](O)C/C1=C/C=C1\CCC[C@]2(C)[C@@H]([C@H](C)CCCC(C)C)CC[C@@H]12 [Vitamin D, Vitamin D3] | increase TEER | increase MIP3A-CCL20 production | increase MIP3A-CCL20 production | increase MIP3A-CCL20 production | increase butyrate production | increase butyrate production | increase propionate production | increase propionate production | increase total SCFAs production | increase microbiome diversity | total SCFAs production ([2]; 1× dose): increase total SCFAs production; relative abundance of genes involved in Acetyl-CoA fermentation to Butyrate pathway ([3]; 0.2× dose): increase relative abundance; microbiome alpha diversity (Shannon diversity index) ([4]; 0.2× dose): increase microbiome diversity; Bifidobacterium relative abundance (Bifidobacterium; 0.2× dose): increase Bifidobacterium relative abundance; Bifidobacterium relative abundance (Bifidobacterium; 5× dose): increase Bifidobacterium relative abundance |

Source: patent publication US12508280B2, “Formulations for improving gut health” (DSM IP ASSETS B.V., priority 2018, dated 2025)
